# Reference: PMC7216583 (Parasites & Vectors, 2020)
# Counter-ions that a name gives are not always drawn. Like-named read-outs stand apart in the source and are kept apart here.
# Assays:
# [1] = tested on: Toxoplasma gondii RH-2F tachyzoites; experiment: microbe, parasite or virus in culture; conditions: 72 h; for inhibition at 5 µM: read-out: Parasite inhibition (%) Mean ± SD
# in vitro = conditions: human
# [2] = tested on: Toxoplasma gondii RH-2F tachyzoites; conditions: for effect on T. gondii growth in the screen: 5 μM, 72 h
# [3] = read-out: Parasite inhibition (%) mean, preliminary screen, mean
# [4] = read-out: Parasite inhibition (%) mean, preliminary screen of compound library, mean
# [5] = preliminary screen of compound library, mean
# [6] = read-out: Parasite inhibition (%) mean
compound,measurement,setting,value
CC[C@]12C=CCN3CCC4(c5cc([C@@]6(C(=O)OC)C[C@H]7C[C@@H](C(C)(F)F)CN(Cc8c6[nH]c6ccccc86)C7)c(OC)cc5N(C)[C@H]4[C@@](O)(C(=O)OC)[C@@H]1OC(C)=O)C32 (stereo in doubt) [Vinflunine Tartrate],inhibition of growth at 5 µM,[1]; [3],83.2%
same,viability,in vitro,60.8%
CC1(C)CCC(CN2CCN(c3ccc(C(=O)NS(=O)(=O)c4ccc(NCC5CCOCC5)c([N+](=O)[O-])c4)c(Oc4cnc5[nH]ccc5c4)c3)CC2)=C(c2ccc(Cl)cc2)C1 [ABT-199 (GDC-0199 )],inhibition of growth at 5 µM,[1]; [4],70.8%
same,viability at 72 h,in vitro; Host viability (%) mean,25.4%
"COC(=O)N[C@H](C(=O)N[C@@H](Cc1ccccc1)[C@@H](O)CN(Cc1ccc(-c2ccccn2)cc1)NC(=O)[C@@H](NC(=O)OC)C(C)(C)C)C(C)(C)C [Atazanavir, reference compound]",inhibition at 5 µM,[1],93.6 ± 2.1%
same,effect on T. gondii growth in the screen,[2],significantly inhibited T. gondii growth
same,"viability at 72 h, 5 µM",in vitro; Host viability (%) Mean ± SD,90.7 ± 2.8%
CNC1CCCN(c2c(F)cc3c(=O)c(C(=O)O)cn(C4CC4)c3c2OC)C1 (stereo not shown) [Balofloxacin],inhibition of growth at 5 µM,[1]; [4],71.8%
same,viability at 72 h,in vitro; Host viability (%) mean,76.4%
"CCN1CCN(c2cc(-c3ccc(F)cc3)c3c(n2)CCCCCC3)CC1 [Blonanserin, reference compound]",inhibition at 5 µM,[1],82.1 ± 3.1%
same,"viability at 72 h, 5 µM",in vitro; Host viability (%) Mean ± SD,88.3 ± 5.9%
CN(C)c1ccc(-c2nc3c(N4CCN(CC(=O)Nc5nccs5)CC4)c(Cl)cnc3[nH]2)cc1 [CCT129202],inhibition of growth at 5 µM,[1]; [3],85.6%
same,viability at 72 h,in vitro; Host viability (%) mean,42.6%
"CC(C)C[C@@H](C(=O)N[C@H](C(=O)OC1CCCC1)c1ccccc1)[C@H](O)C(=O)NO [CHR2797, reference compound]",inhibition at 5 µM,[1],85.6 ± 1.8%
same,"viability at 72 h, 5 µM",in vitro; Host viability (%) Mean ± SD,88.8 ± 6.7%
C[C@@H](Oc1cc(-c2cnn(C3CCNCC3)c2)cnc1N)c1c(Cl)ccc(F)c1Cl [Crizotinib (PF-02341066)],inhibition of growth at 5 µM,[1]; [3],86.8%
same,viability,in vitro,43.6%
CN1CCC(=C2c3ccccc3C=Cc3ccccc32)CC1 [Cyproheptadine HCl (Periactin)],viability at 72 h,"in vitro; uninfected human foreskin fibroblasts (HFFs), Host viability (%) mean, preliminary screen, mean",90.6%
"CN1CCC(=C2c3ccccc3C=Cc3ccccc32)CC1 [Cyproheptadine HCl, reference compound]","viability at 72 h, 5 µM",in vitro; Host viability (%) Mean ± SD,90.6 ± 1.2%
CC(O)C(=O)O.CC(O)C(=O)O.CN1CCN(c2ccc3nc(-c4c(N)c5c(F)cccc5[nH]c4=O)[nH]c3c2)CC1 [Dovitinib Dilactic acid],Parasite inhibition (%) mean,[2]; [5],18.2%
"Nc1ccccc1NC(=O)c1ccc(CNC(=O)OCc2cccnc2)cc1 [Entinostat (MS-275, SNDX-275)]",inhibition of growth at 5 µM,[1]; [3],75.7%
same,viability at 72 h,in vitro; Host viability (%) mean,81.6%
"Nc1ccccc1NC(=O)c1ccc(CNC(=O)OCc2cccnc2)cc1 [Entinostat, reference compound]",inhibition at 5 µM,[1],75.7 ± 2.2%
same,"viability at 72 h, 5 µM",in vitro; Host viability (%) Mean ± SD,81.6 ± 1.5%
CNC(=O)CN(CCN(CCN(CC(=O)[O-])CC(=O)NC)CC(=O)[O-])CC(=O)[O-].O.[Gd+3] [Gadodiamide (Omniscan)],Parasite inhibition (%) mean,[2]; [5],-0.2%
Oc1cc(O)c(Cl)cn1 [Gimeracil],inhibition of growth at 5 µM,[1]; [3],70.8%
same,viability at 72 h,in vitro; Host viability (%) mean,75.6%
Cl.N=C(N)N [Guanidine HCl],Parasite inhibition (%) mean,[2]; [5],-3.4%
CNC(=O)c1ccc(-c2cnc3ncc(Cc4ccc5ncccc5c4)n3n2)cc1F [INCB28060],inhibition of growth at 5 µM,[1]; [4],89.8%
same,viability,in vitro,46.3%
CC(C)Cc1ccc(C(C)C(=O)O)cc1.NCCCC[C@H](N)C(=O)O (stereo not shown) [Ibuprofen Lysine (NeoProfen)],Parasite inhibition (%) mean,"[2]; preliminary screen, mean",-1.6%
"O=C(C[S+]([O-])Cc1ccco1)NC/C=C\COc1cc(CN2CCCCC2)ccn1 (stereo not shown) [Lafutidine, reference compound]",inhibition at 5 µM,[1],70.6 ± 2.5%
same,"viability at 72 h, 5 µM",in vitro; Host viability (%) Mean ± SD,92.7 ± 5.6%
same,viability at 72 h,in vitro; Host viability (%) mean,92.7%
C[C@]1(O)C[C@@H](c2nc(-c3ccc4ccc(-c5ccccc5)nc4c3)c3c(N)nccn32)C1 [Linsitinib (OSI-906)],inhibition of growth at 5 µM,[1]; [3],78.8%
same,viability at 72 h,in vitro; Host viability (%) mean,72.2%
O=C1CCC[C@@H]2[C@@H]3CCCN4CCC[C@H](CN12)[C@@H]34 [Matrine ((+)-Matrine)],inhibition of growth at 5 µM,[1]; [4],78.7%
same,viability at 72 h,in vitro; uninfected human foreskin fibroblasts (HFFs),19.6%
"Cc1cccc(C(C)c2cnc[nH]2)c1C (stereo not shown) [Medetomidine HCl, reference compound]",inhibition at 5 µM,[1],70.8 ± 1.5%
same,viability,in vitro,90.5%
same,viability at 5 µM,in vitro,90.5 ± 4.4%
Nc1ccccc1NC(=O)c1ccc(CNc2nccc(-c3cccnc3)n2)cc1 [Mocetinostat (MGCD0103)],inhibition of growth at 5 µM,[1]; [3],86.5%
same,viability at 72 h,in vitro; Host viability (%) mean,80.2%
"Nc1ccccc1NC(=O)c1ccc(CNc2nccc(-c3cccnc3)n2)cc1 [Mocetinostat, reference compound]",inhibition at 5 µM,[1],86.5 ± 3.1%
same,"viability at 72 h, 5 µM",in vitro; Host viability (%) Mean ± SD,80.2 ± 3.8%
CN(C)Cc1c(C(=O)NCCOc2ccc(C(=O)NO)cc2)oc2ccccc12 [PCI-24781],inhibition of growth at 5 µM,[1]; [3],82.7%
same,viability at 72 h,in vitro; Host viability (%) mean,33.8%
OCCn1cc(-c2cnc3nnn(Cc4ccc5ncccc5c4)c3n2)cn1 [PF-04217903],inhibition of growth at 5 µM,[1]; [6],88.6%
same,viability at 72 h,in vitro,65%
O=S(=O)(F)Cc1ccccc1 [PMSF (Phenylmethylsulfonyl Fluoride)],Parasite inhibition (%) mean,[2]; [5],0.8%
Cl.NC(=O)c1cnc(N[C@@H]2CCCC[C@@H]2N)nc1Nc1cccc(-n2nccn2)c1 [PRT062607 HCl],Parasite inhibition (%) mean,[2]; [5],17.8%
"NCCC(O)(P(=O)(O)O)P(=O)(O)O [Pamidronate disodium, reference compound]",inhibition at 5 µM,[1],79.6 ± 1.5%
same,viability at 72 h,in vitro,80.8%
same,"viability at 72 h, 5 µM",in vitro,80.8 ± 1.4%
"Nc1nc2[nH]cc(CCc3ccc(C(=O)N[C@@H](CCC(=O)O)C(=O)O)cc3)c2c(=O)[nH]1 [Pemetrexed disodium, reference compound]","viability at 72 h, 5 µM",in vitro,84.6 ± 1.5%
[I-].[K+] [Potassium iodide],Parasite inhibition (%) mean,[2]; [5],10.2%
C=C[C@H]1C[N@@]2CC[C@H]1C[C@H]2[C@H](O)c1ccnc2ccc(OC)cc12 [Quinine hydrochloride dihydrate],inhibition of growth at 5 µM,[1]; [4],78.9%
same,viability,in vitro,79.4%
COc1cc(Nc2ncc(F)c(Nc3ccc4c(n3)N(COP(=O)(O)O)C(=O)C(C)(C)O4)n2)cc(OC)c1OC [R935788],Parasite inhibition (%) mean,"[2]; preliminary screen, mean",28.5%
N[C@@H]1CN(c2c(F)cc3c(=O)c(C(=O)O)cn([C@@H]4C[C@@H]4F)c3c2Cl)CC12CC2.O [Sitafloxacin hydrate],Parasite inhibition (%) mean,[2]; [5],53.1%
"N#CC(=C(/N)Sc1ccccc1N)/C(C#N)=C(/N)Sc1ccccc1N [U0126, reference compound]",effect on T. gondii growth in the screen,[2],no effect on T. gondii growth
"Cc1cc(Nc2cc(N3CCN(C)CC3)nc(Sc3ccc(NC(=O)C4CC4)cc3)n2)n[nH]1 [VX-680 (MK-0457, Tozasertib)]",inhibition of growth at 5 µM,[1]; [3],70.7%
same,viability at 72 h,in vitro; Host viability (%) mean,34.7%
CN[C@H](CC(C)C)C(=O)N[C@H]1C(=O)N[C@@H](CC(N)=O)C(=O)N[C@H]2C(=O)N[C@H]3C(=O)N[C@@H](C(=O)N[C@H](C(=O)O)c4cc(O)cc(O)c4-c4cc3ccc4O)[C@H](O)c3ccc(c(Cl)c3)Oc3cc2cc(c3O[C@H]2O[C@H](CO)[C@@H](O)[C@H](O)[C@H]2O[C@H]2C[C@@](C)(N)[C@H](O)[C@H](C)O2)Oc2ccc(cc2Cl)[C@H]1O.Cl [Vancomycin HCl (Vancocin)],Parasite inhibition (%) mean,[2],0.8%
COc1cc2c(Nc3ccc(Br)cc3F)ncnc2cc1OCC1CCN(C)CC1 [Vandetanib (Zactima)],inhibition of growth at 5 µM,[1]; [3],80.2%
same,viability at 72 h,in vitro,79.5%
CCCS(=O)(=O)Nc1ccc(F)c(C(=O)c2c[nH]c3ncc(-c4ccc(Cl)cc4)cc23)c1F [Vemurafenib (PLX4032)],inhibition of growth at 5 µM,[1]; [3],0.5%
N#C[C@@H]1CCCN1C(=O)CNC12CC3CC(CC(O)(C3)C1)C2 [Vildagliptin (LAF-237)],inhibition of growth at 5 µM,[1]; [4],-11.7%
C=CC(=O)Nc1cccc(Sc2nc(Nc3ccc(N4CCN(C)CC4)cc3)ncc2Cl)c1 [WZ8040],inhibition of growth at 5 µM,[1]; [6],2.8%
Oc1nc(-c2ccc(C(F)(F)F)cc2)nc2c1CSCC2 [XAV-939],inhibition of growth at 5 µM,[1]; [3],-38.8%
O=C[C@H](O)[C@@H](O)[C@H](O)CO [Xylose],inhibition of growth at 5 µM,[1]; [4],-51.2%
C[C@@H](N)[C@H]1CC[C@H](C(=O)Nc2ccncc2)CC1 [Y-27632 2HCl],inhibition of growth at 5 µM,[1]; [3],-4.8%
COc1cc2c(Nc3ccc(NC(=O)c4ccccc4)cc3)ncnc2cc1OCCCN1CCOCC1 [ZM-447439],inhibition of growth at 5 µM,[1]; [3],70.2%
same,viability at 72 h,in vitro; Host viability (%) mean,31.2%
CC(C(=O)O)c1ccc2c(c1)CC(=O)c1ccccc1S2 (stereo not shown) [Zaltoprofen],inhibition of growth at 5 µM,[1]; [4],3.3%
O=C1Cc2cc(CCN3CCN(c4nsc5ccccc45)CC3)c(Cl)cc2N1 [Ziprasidone hydrochloride],inhibition of growth at 5 µM,[1]; [4],33.7%
"Cc1cc(C)c(/C=C2\C(=O)Nc3ccccc32)[nH]1 [semaxanib, reference compound]",effect on T. gondii growth in the screen,[2],no effect on T. gondii growth
Biapenem,Parasite inhibition (%) mean,[2]; [5],5.8%
Ulipristal,Parasite inhibition (%) mean,[2]; [5],-0.7%
